Source: patent US20200383985A1, “Inhibitors of Protease Activated Receptor-2” (Endosome Therapeutics, Inc., priority 2017, published 2020)

Experiments:
mouse DRG neurons = test: Patch clamp rheobase of DRG neurons: protease-induced hyperexcitability of nociceptors; assay type: cell-based; settings: for basal excitability of DRG neurons / initial hyperexcitability (0 min) caused by trypsin, NE or CS / persistent effects (30 min) of NE or CS on rheobase / persistent effects (30 min) of trypsin on rheobase: Dy4 30 μM, PS2 15 μM; for rheobase after protease: trypsin 50 nM 10 min, NE 390 nM 30 min, CS 500 nM 60 min, thrombin 50 nM 20 min, washed
mice = test: Somatic mechanical nociception, von Frey filaments after intraplantar injection; assay type: in vivo, mouse; settings: for NE- and CS-induced allodynia / trypsin-induced mechanical allodynia: inhibitor 50 μM, 10 μl intraplantar; for NE- and CS-induced allodynia: 30 min before NE (1.2 μM) or CS (2.5 μM); for trypsin-induced mechanical allodynia: 30 min before trypsin (10 nM), at 1 and 2 h; for mechanical allodynia after intraplantar protease: WT mice, 10 μl trypsin (80 nM), NE (3.9 μM) or CS (5 μM), within 30 min, maintained for 180 min
Procedure: After 30 min, trypsin (10 nM), NE (1.2 μM), or CS (2.5 μM) (10 μl) was injected into the same paw.
Mice were acclimatized to the experimental apparatus, room and investigator for 1-2 h on 2 successive days before studies. Investigators were blinded to the test agents. Mice were sedated (5% isoflurane) for intraplantar injections. Dy4a, Dy4 inact, PS2, PS2 inact (all 50 μM) or vehicle (0.2% DMSO in 0.9% NaCl) (10 μl) was injected into the left hindpaw. After 30 min, trypsin (10 or 80 nM), CS (2.5 or 5 μM) or NE (1.2 or 3.9 μM) (all 10 μl) was injected into the same hindpaw. Mechanical nociceptive responses were evaluated by examining paw withdrawal to stimulation of the plantar surface of the hind-paw with calibrated von Frey filaments. von Frey scores were measured in triplicate to establish a baseline for each animal on the day before experiments, and were then measured for up to 4 h after protease administration. To assess edema, paw thickness was measured at the site of injection between the plantar and the dorsal surfaces of the paw using digital calipers. For evaluation of neutrophil infiltration, paws were collected at 4 h after intraplantar injection of trypsin (10 μl, 80 nM) or vehicle, fixed in 10% neutral buffered formalin for 48-72 h, bisected, and fixed in formalin for an additional 12 h. Tissue was decalcified in 10% 0.5 M EDTA for 6 days, washed in water, transferred to 70% ethanol for 24 h, and embedded in paraffin. Sections (5 μm) were incubated with neutrophil antibody Ly6G/6C clone NIMP-R14 (Abcam #ab2557, Lot #GR135037-1, AB_303154, 1:800, room temperature, 12 h). Sections were processed for chromogenic immunohistochemistry on a Ventana Medical Systems Discovery XT platform with online deparaffinization using Ventana's reagents. Ly6G/Ly6c was enzymatically treated with protease-3 (Ventana Medical Systems) for 8 min. Ly6G/Ly6c was detected with goat anti-rat horseradish peroxidase conjugated multimer incubated for 16 min.

mPAR2-GFP = target: T1, mPAR2-GFP (Mus musculus, UniProt P55086); test: PAR2 trafficking (endocytosis) in DRG neurons; assay type: cell-based; settings: for mPAR2-GFP endocytosis: protease 100 nM, 30 min
T1 construct: expressed in transfected cells; host or cells: mouse (C57BL/6) DRG neurons, nucleofection
T1 sequence (P55086 26-399): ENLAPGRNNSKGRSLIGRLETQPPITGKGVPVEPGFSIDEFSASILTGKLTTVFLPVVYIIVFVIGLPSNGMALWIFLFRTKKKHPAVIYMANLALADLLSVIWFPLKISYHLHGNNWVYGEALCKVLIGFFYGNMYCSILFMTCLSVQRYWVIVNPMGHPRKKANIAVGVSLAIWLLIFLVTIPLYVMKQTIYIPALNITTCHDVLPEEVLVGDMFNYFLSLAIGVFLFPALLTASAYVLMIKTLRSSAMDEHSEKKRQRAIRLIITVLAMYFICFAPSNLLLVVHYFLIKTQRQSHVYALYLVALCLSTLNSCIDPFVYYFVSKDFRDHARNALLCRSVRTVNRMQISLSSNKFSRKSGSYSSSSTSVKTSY
Procedure: To assess endocytosis of PAR2 in nociceptors, mouse (m) PAR2-GFP was transfected in to mouse DRG neurons. In vehicle-treated neurons, mPAR2-GFP was detected at the plasma membrane and in intracellular compartments that may correspond to stores of PAR2 in the Golgi apparatus (FIG. 4A) (Jensen D. D., et al. J Biol Chem. 2016, 291(21): 11285-11299). Trypsin, but not NE or CS (100 nM, 30 min), induced mPAR2-GFP endocytosis (FIG. 4A, B). Dy4, but not Dy4 inact, inhibited trypsin-induced endocytosis of mPAR2-GFP (FIG. 4C). To determine whether PAR2 recruits βARRs, which mediate endocytosis, Bioluminescence Resonance Energy Transfer (BRET) sensors were expressed for PAR2-RLuc8 (donor) and βARR2-YFP (acceptor) in mouse DRG neurons. Trypsin, but not NE or CS, increased PAR2-RLuc8/βARR2-YFP BRET (FIG. 4D).
DRG were collected from C57BL/6 mice and Sprague-Dawley rats (all levels). DRG were incubated with collagenase IV (2 mg/ml) and dispase II (1 mg/ml) for 30 min (mice) and 45 min (rats) at 37° C. DRG were dispersed by trituration with a fire-polished Pasteur pipette. Dissociated neurons were transfected with mPAR2-GFP (1 μg), the FRET biosensors CytoEKAR, NucEKAR, pmCKAR or CytoCKAR (all […]), or with the BRET biosensors PAR2-RLuc8 (125 ng) and βARR2-FYP (475 ng) using the Lonza 4D-Nucleofector X unit according to the manufacturer's instructions. […]
Mouse DRG neurons expressing mPAR2-GFP were incubated with trypsin (10 nM), CS (100 nM), NE (100 nM) or vehicle (30 min, 37° C.), and were fixed (4% paraformaldehyde, 20 min, 4C). NeuN was detected by indirect immunofluorescence as described (Jensen, D. D. et al., Sci Transl Med. 2017, 9(392), eaal3447). […] PAR2 internalization in NeuN-positive neurons was quantified using ImageJ software. The border of the cytoplasm in the neuronal soma was defined by NeuN fluorescence. mPAR2-GFP fluorescence within 0.5 μm of the border was defined as plasma membrane-associated receptor. The ratio of plasma membrane to cytosolic mPAR2-GFP was determined.

Row | Compound | basal excitability of DRG neurons (mouse DRG neurons) | initial hyperexcitability (0 min) caused by trypsin, NE or CS (mouse DRG neurons) | persistent effects (30 min) of NE or CS on rheobase (mouse DRG neurons) | persistent effects (30 min) of trypsin on rheobase (mouse DRG neurons) | NE- and CS-induced allodynia (mice) | trypsin-induced mechanical allodynia (mice) | rheobase after protease (mouse DRG neurons) | mechanical allodynia after intraplantar protease (mice) | mPAR2-GFP endocytosis (mPAR2-GFP) | also measured
1 | Cc1nc(C(=O)N2CCN(C(=O)c3cn4nc(-c5ccc(F)cc5)cc(C(C)(C)C)c4n3)C(C)(C)C2)n[nH]1 [Compound I-343, (8-(tert-butyl)-6-(4-fluorophenyl)imidazo[1,2-b]pyridazin-2-yl)(2,2-dimethyl-4-(5-methyl-1H-1,2,4-triazole-3-carbonyl)piperazin-1-yl)methanone] |  |  |  |  |  |  |  |  |  | decrease in rheobase 0 min after NE (mouse DRG neurons): prevented; decrease in rheobase 0 min after trypsin (mouse DRG neurons; 100 nM, 300 nM): prevented; decrease in rheobase 30 min after CS (mouse DRG neurons; 10 μM): prevented; decrease in rheobase 30 min after NE (mouse DRG neurons; 10 μM): not; decrease in rheobase 30 min after trypsin (mouse DRG neurons; 10 μM): prevented
2 | O=C(N/N=C/c1cc(O)c(O)cc1O)c1cc2ccccc2cc1O [Dy4] | did not affect | did not affect | not | abolished | unchanged or minimally affected | inhibited |  |  |  | trypsin-induced endocytosis of mPAR2-GFP (mPAR2-GFP; preincubated with Dy4 or Dy4 inact): inhibited
3 | O=C1NC(=NS(=O)(=O)c2cccc3ccccc23)S/C1=C\c1ccc(Br)cc1 [PS2] | did not affect | did not affect | not | abolished | unchanged or minimally affected | inhibited |  |  |  | 
4 | NE: protease (elastase) activating PAR2 by biased mechanisms |  |  |  |  |  |  | decreased rheobase at 0 and 30 min | induced mechanical allodynia | not | 
5 | trypsin |  |  |  |  |  |  | decreased rheobase at 0 and 30 min | induced mechanical allodynia | induced | 
